Values of other authors in patent US5576012A, “Pharmaceutical aqueous formulations containing a sparingly soluble pharmaceutical active compound with a solubilizing polymeric agent” (priority 1990, dated 1996).
Like-named read-outs stand apart in the source and are kept apart here. Each block holds one compound with its values, some of them ahead of it.

Tests used:
[1] = not given; remark: listed apart in the source

Compound: CCO [ethanol]
Intravasal hemolytic reactions (intravasal): detectable

Compound: CC(C)c1cccc(C(C)C)c1O [propofol, reference compound]
water-solubility (in words) ([1]; active compounds for intravasal use): too low to dissolve the therapeutic dose in an acceptable volume

Compound: CC(O)CO (stereo not drawn) [propylene glycol]
Intravasal hemolytic reactions (in vivo): detectable

water-solubility ([1]; cyclodextrins in water): 17.4%
Compound: OC[C@H]1O[C@@H]2O[C@H]3[C@H](O)[C@@H](O)[C@@H](O[C@H]4[C@H](O)[C@@H](O)[C@@H](O[C@H]5[C@H](O)[C@@H](O)[C@@H](O[C@H]6[C@H](O)[C@@H](O)[C@@H](O[C@H]7[C@H](O)[C@@H](O)[C@@H](O[C@H]1[C@H](O)[C@H]2O)O[C@@H]7CO)O[C@@H]6CO)O[C@@H]5CO)O[C@@H]4CO)O[C@@H]3CO [α-CD, α-cyclodextrin]

Compound: OC[C@H]1O[C@@H]2O[C@H]3[C@H](O)[C@@H](O)[C@@H](O[C@H]4[C@H](O)[C@@H](O)[C@@H](O[C@H]5[C@H](O)[C@@H](O)[C@@H](O[C@H]6[C@H](O)[C@@H](O)[C@@H](O[C@H]7[C@H](O)[C@@H](O)[C@@H](O[C@H]8[C@H](O)[C@@H](O)[C@@H](O[C@H]1[C@H](O)[C@H]2O)O[C@@H]8CO)O[C@@H]7CO)O[C@@H]6CO)O[C@@H]5CO)O[C@@H]4CO)O[C@@H]3CO [β-CD, β-cyclodextrin]
toxic action on parenteral administration (administered parenterally): nephrotoxic action

Compound: OC[C@H]1O[C@@H]2O[C@H]3[C@H](O)[C@@H](O)[C@@H](O[C@H]4[C@H](O)[C@@H](O)[C@@H](O[C@H]5[C@H](O)[C@@H](O)[C@@H](O[C@H]6[C@H](O)[C@@H](O)[C@@H](O[C@H]7[C@H](O)[C@@H](O)[C@@H](O[C@H]8[C@H](O)[C@@H](O)[C@@H](O[C@H]9[C@H](O)[C@@H](O)[C@@H](O[C@H]1[C@H](O)[C@H]2O)O[C@@H]9CO)O[C@@H]8CO)O[C@@H]7CO)O[C@@H]6CO)O[C@@H]5CO)O[C@@H]4CO)O[C@@H]3CO [γ-CD, γ-cyclodextrin]
water-solubility ([1]; water): 25.8%
